Experiments:
Details in all cases: membranes from stably transfected CHO cells, 3H-QNB 100-200 pM, 25° C., 90 minutes
[1] = target: T1, cloned human M1 muscarinic receptor (Homo sapiens, UniProt P11229); assay: Muscarinic binding activity, 3H-QNB displacement, M1
T1 sequence (P11229 1-460): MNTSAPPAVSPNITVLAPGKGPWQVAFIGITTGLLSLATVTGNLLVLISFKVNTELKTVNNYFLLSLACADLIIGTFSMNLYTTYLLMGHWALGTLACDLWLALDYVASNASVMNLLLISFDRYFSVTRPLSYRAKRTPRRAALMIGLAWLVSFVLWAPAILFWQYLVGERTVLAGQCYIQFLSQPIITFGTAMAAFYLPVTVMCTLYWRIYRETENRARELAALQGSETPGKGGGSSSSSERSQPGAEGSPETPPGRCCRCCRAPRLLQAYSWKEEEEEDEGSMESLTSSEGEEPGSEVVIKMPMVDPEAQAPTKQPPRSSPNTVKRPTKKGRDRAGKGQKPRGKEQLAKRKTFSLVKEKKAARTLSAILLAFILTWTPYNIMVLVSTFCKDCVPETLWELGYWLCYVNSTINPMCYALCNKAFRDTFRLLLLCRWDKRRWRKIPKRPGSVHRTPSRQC

[2] = target: T2, cloned human M2 muscarinic receptor (Homo sapiens, UniProt P08172); assay: Muscarinic binding activity, 3H-QNB displacement, M2
T2 sequence (P08172 1-466): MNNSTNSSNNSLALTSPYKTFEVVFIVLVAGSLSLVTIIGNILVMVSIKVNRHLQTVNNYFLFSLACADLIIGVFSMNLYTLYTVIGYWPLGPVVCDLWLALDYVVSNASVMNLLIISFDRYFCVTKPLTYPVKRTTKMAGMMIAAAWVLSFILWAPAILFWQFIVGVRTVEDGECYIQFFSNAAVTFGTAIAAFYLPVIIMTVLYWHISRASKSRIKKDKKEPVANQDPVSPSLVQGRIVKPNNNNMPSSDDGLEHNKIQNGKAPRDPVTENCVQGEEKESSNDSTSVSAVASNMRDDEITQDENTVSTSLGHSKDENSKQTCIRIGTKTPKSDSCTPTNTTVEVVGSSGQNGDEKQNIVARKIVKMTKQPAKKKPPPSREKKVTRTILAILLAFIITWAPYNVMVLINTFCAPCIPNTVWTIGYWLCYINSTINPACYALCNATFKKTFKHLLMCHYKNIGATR

[3] = target: cloned human M3 muscarinic receptor (Homo sapiens, UniProt P20309); assay: Muscarinic binding activity, 3H-QNB displacement, M3
[4] = target: T3, cloned human M4 muscarinic receptor (Homo sapiens, UniProt P08173); assay: Muscarinic binding activity, 3H-QNB displacement, M4
T3 sequence (P08173 1-479): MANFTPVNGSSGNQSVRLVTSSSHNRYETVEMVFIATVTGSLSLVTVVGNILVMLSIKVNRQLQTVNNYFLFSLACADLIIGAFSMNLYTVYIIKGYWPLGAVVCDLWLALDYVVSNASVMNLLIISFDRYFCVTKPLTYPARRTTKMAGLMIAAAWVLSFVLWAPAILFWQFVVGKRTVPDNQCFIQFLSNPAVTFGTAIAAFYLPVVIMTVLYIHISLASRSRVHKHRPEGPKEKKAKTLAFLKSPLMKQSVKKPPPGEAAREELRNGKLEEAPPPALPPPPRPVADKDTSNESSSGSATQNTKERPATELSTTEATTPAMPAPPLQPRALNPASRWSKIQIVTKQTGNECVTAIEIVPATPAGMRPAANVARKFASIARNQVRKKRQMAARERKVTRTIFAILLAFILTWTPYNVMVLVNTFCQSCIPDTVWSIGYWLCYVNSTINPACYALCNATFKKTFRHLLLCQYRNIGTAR

[5] = target: T4, cloned human M5 muscarinic receptor (Homo sapiens, UniProt P08912); assay: Muscarinic binding activity, 3H-QNB displacement, M5
T4 sequence (P08912 1-532): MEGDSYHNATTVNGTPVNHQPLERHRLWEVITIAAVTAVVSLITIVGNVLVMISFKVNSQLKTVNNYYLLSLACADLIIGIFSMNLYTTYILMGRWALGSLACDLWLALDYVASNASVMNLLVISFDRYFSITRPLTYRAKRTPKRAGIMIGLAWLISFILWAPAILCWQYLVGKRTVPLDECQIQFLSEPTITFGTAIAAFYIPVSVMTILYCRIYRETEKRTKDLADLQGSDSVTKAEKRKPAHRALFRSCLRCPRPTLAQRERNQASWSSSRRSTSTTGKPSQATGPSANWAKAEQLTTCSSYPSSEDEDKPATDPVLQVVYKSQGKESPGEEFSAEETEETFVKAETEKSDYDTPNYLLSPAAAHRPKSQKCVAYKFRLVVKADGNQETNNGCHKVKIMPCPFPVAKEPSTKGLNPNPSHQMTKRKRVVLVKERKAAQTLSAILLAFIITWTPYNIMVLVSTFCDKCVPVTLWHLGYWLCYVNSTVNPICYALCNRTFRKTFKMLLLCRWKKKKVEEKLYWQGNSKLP

Sequence of cloned human M3 muscarinic receptor (P20309 whole entry): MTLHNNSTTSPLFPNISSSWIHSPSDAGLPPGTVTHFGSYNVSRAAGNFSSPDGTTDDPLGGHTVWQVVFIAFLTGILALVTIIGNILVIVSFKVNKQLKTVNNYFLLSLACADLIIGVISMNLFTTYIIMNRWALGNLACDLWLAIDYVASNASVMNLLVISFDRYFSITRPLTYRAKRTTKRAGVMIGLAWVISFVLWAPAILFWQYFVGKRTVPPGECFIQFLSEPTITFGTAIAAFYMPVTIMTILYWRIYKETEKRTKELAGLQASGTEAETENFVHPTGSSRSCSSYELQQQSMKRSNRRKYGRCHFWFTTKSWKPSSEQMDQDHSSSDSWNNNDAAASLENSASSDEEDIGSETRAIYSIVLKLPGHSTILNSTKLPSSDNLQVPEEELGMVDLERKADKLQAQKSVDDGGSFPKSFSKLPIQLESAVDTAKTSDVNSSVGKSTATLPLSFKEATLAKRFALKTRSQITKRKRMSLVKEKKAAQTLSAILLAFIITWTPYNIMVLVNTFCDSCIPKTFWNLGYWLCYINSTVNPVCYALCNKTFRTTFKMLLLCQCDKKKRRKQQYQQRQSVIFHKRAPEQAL

Compound | Ki [1] [nM] | Ki [2] [nM] | Ki [3] [nM] | Ki [4] [nM] | Ki [5] [nM]
CC(C)Oc1ccc(C2C(Cl)(Cl)C23CCN(C2CCN(S(=O)(=O)c4cccc5ccccc45)CC2)CC3)cc1 (stereo not shown) [Compound 16] | > 1200 | 1840 |  |  | 
CC(C)Oc1ccc(C2CC23CCN(C2CCN(C(=O)c4cccc(Cl)c4Cl)CC2)CC3)cc1 (stereo not shown) [Compound 8] | 819 | 607 | > 1000 | > 1000 | > 1500
CC(C)Oc1ccc(C2(C)CC23CCN(C2CCN(C(=O)c4cccc(Cl)c4Cl)CC2)CC3)cc1 (stereo not shown) [Compound 10] | 1010 | 149 | > 1200 | 261 | 995
Cc1cccc(C(=O)N2CCC(N3CCC4(CC3)C(c3ccc(OC(C)C)cc3)C4(Cl)Cl)CC2)c1N (stereo not shown) [Compound 4] | > 990 | 77 | > 1000 | > 1000 | 96
Cc1cccc(C)c1C(=O)N1CCC(N2CCC3(CC2)C(c2ccc(OC(C)C)cc2)C3(Cl)Cl)CC1 (stereo not shown) [Compound 17] | > 1200 | > 1900 |  |  | 
CCCS(=O)(=O)N1CCC(N2CCC3(CC2)C(c2ccc(OC(C)C)cc2)C3(Cl)Cl)CC1 (stereo not shown) [Compound 15] | > 1200 | 481 |  |  | 
CC(C)Oc1ccc(C2C(Cl)(Cl)C23CCN(C2CCN(C(=O)c4cccc(Cl)c4N)CC2)CC3)cc1 (stereo not shown) [Compound 5] | > 990 | 1390 | > 1000 | > 1000 | 786
CC(C)Oc1ccc(C2CC23CCN(C2CCN(C(=O)c4cccc(Cl)c4N)CC2)CC3)cc1 (stereo not shown) [Compound 9] | > 900 | 490 | > 1000 | > 1000 | > 1500
CC(C)Oc1ccc(C2C(Cl)(Cl)C23CCN(C2CCN(C(=O)c4cccc(F)c4N)CC2)CC3)cc1 (stereo not shown) [Compound 6] | > 990 | 1200 | > 1000 | > 1000 | 42
CC(C)Oc1ccc(C2C(Cl)(Cl)C23CCN(C2CCN(C(=O)c4cccc(Cl)c4Cl)CC2)CC3)cc1 (stereo not shown) [Compound 3] | > 996 | > 1440 | > 1000 | > 1000 | > 1500
CC(C)Oc1ccc(C2C(Cl)(Cl)C23CCN(C2CCN(C(=O)c4ccc(F)c5ccccc45)CC2)CC3)cc1 (stereo not shown) [Compound 13] | > 1200 | > 1900 |  |  | 
Cc1cccc(C(=O)N2CCC(N3CCC4(CC3)C(c3ccc(OC(C)C)cc3)C4(Cl)Cl)CC2)c1Cl (stereo not shown) [Compound 1] | > 990 | > 1400 | > 1000 | > 1000 | 891
CC(C)Oc1ccc(C2C(Cl)(Cl)C23CCN(C2CCN(C(=O)c4cccc5c(Br)cccc45)CC2)CC3)cc1 (stereo not shown) [Compound 14] | > 1200 | > 1900 |  |  | 
Cc1c(Cl)cccc1C(=O)N1CCC(N2CCC3(CC2)CC3(C)c2ccc(OC(C)C)cc2)CC1 (stereo not shown) [Compound 12] | 744 | 113 | > 1200 | 272 | 1210
Cc1c(Cl)cccc1C(=O)N1CCC(N2CCC3(CC2)CC3c2ccc(OC(C)C)cc2)CC1 (stereo not shown) [Compound 7] | > 900 | > 1380 | > 1000 | > 1000 | > 1500
Cc1c(Cl)cccc1C(=O)N1CCC(N2CCC3(CC2)C(c2ccc(OC(C)C)cc2)C3(Cl)Cl)CC1 (stereo not shown) [Compound 2] | 982 | > 1400 |  |  | 
CC(C)Oc1ccc(C2(C)CC23CCN(C2CCN(C(=O)c4cccc(Cl)c4N)CC2)CC3)cc1 (stereo not shown) [Compound 11] | 600 | 49 | 691 | 151 | 619
